The values below come from patent EP3907227A1, “TRILOBINE DERIVATIVES AND THEIR USE THEREOF IN THE TREATMENT OF MALARIA” (Institut Pasteur, priority 2020, dated 2021).

The test system of assay [1] is Strain 6591. Nature of the assay: Inhibition of proliferation of multi-resistant field isolates, asynchronous asexual stages, SYBR-green assay. It counts as cell-based, P. falciparum. The following applies: Plasmodium falciparum; 72h; Cambodian isolate resistant to Chloroquine, Pyrimethamine; mean of three replicates; read-out: IC50 nM Strain 6591 mean*. How it is done:
(§1) Compounds 63 and 84 were evaluated regarding the inhibition of the proliferation of multi-resistant field isolates adapted to culture. A panel of four Cambodian strains bearing different molecular markers of resistance were selected: 3D7: Laboratory strain, drug-sensitive, 5150: Cambodian isolate resistant to Chloroquine and Pyrimethamine, 6591: Cambodian isolate resistant to Chloroquine, Pyrimethamine, 5248: Cambodian isolate resistant to Chloroquine, Pyrimethamine, Mefloquine and Artemisinin, 6320: Cambodian isolate resistant to Chloroquine, Pyrimethamine, Piperaquine and Artemisinin.
(§2) IC50 were obtained against asynchronous asexual stages using SYBR-green assay after 72h of incubation with a serial dilution of the compounds. Data represents the mean and SD of 3 independent experiments ran in triplicates. Table 2 illustrates mean IC50 values and their standard deviation in nanomolar.

The subject of assay [2] is Strain 6320. Described as above. It counts as cell-based, P. falciparum. To be noted: Plasmodium falciparum; 72h; Cambodian isolate resistant to Chloroquine, Pyrimethamine, Piperaquine and Artemisinin; mean of three replicates; read-out: IC50 nM Strain 6320 mean*. On the procedure: as §1, §2
Assay [3] deals with Strain 5248. Described as above. It counts as cell-based, P. falciparum. The following applies: Plasmodium falciparum; 72h; Cambodian isolate resistant to Chloroquine, Pyrimethamine, Mefloquine and Artemisinin; mean of three replicates; read-out: IC50 nM Strain 5248 mean*. How it is done:
as §1, §2

The subject of assay [4] is Strain 5150. The assay is described as above. It is filed as cell-based, P. falciparum. The following applies: Plasmodium falciparum; 72h; Cambodian isolate resistant to Chloroquine and Pyrimethamine; mean of three replicates; read-out: IC50 nM Strain 5150 mean*. On the procedure:
as §1, §2

Assay [5] concerns Parasites. Nature of the assay: Parasite reduction rate (time needed to kill the parasites). It is filed as cell-based. To be noted: survival curves, duration of treatment versus log viable parasites, Figure 3. On the procedure:
Parasites are incubated (see for example Sanz et al. PLoS ONE 7, e30949 (2012)) with a compound of the invention (or a reference) for different time-windows, washed, and diluted serially in 96-well plates in fresh red blood cells. Parasites are kept in culture for 3 to 4 weeks, when growth is assessed to evaluate the number of parasites that survive-correlated to the number of wells where growth is found. Survival curves are obtained by plotting the duration of treatment versus the log of the number of viable parasites (figure 3).

Assay [6] concerns P. falciparum NF54 (drug-sensitive line). Nature of the assay: Inhibition of proliferation of asynchronous asexual cultures (SYBR Green I based assay, 72h). The following applies: for IC50: SYBR Green I, read-out: Malaria CI50. It is filed as cell-based. On the procedure:
Compounds were provided at a concentration of 10 mM in DMSO.
P. falciparum parasite are cultured using standard protocol (Trager and Jensen, Science 1976, 193(4254), 673-675). Briefly, parasites are cultured at 4% hematocrit (O+ human blood, Etablissement Français du Sang, France) in RPMI1640 complemented with 0.1% Albumax I, HEPES buffer, hypoxanthine, and gentamycin. They are incubated at 37°C under an atmosphere of 5% CO2 and 5% O2.
Compounds of the invention were assayed for a first screen at 5µM in duplicate against asynchronous asexual cultures of P. falciparum NF54 (drug-sensitive line) containing mostly rings (2% hematocrit. 0.5% starting parasitemia). Plates were incubated for 72h at 37°C under a reduced oxygen atmosphere. Parasite growth was assessed using the SYBR Green I based assay.
IC50 were determined using Graphpad Prism 6 software. Dihydroartemisinin (starting concentration 50nM) and DMSO were used as positive and negative controls.

Assay [7] relates to asexual NF54 parasites. Nature of the assay: Stage-specificity during the asexual cell cycle (6h treatment windows, Giemsa smears). It is filed as cell-based, P. falciparum. How it is done:
To assess stage specificity of compounds of the invention, asexual NF54 parasites were tightly synchronized (0 to 3h post-invasion) using gelatin flotation and 5% D-sorbitol-treatment 3h later. […] Following the 6h-treatment, the corresponding cells were pelleted, washed with 10ml RPMI, and put back into culture in 500uL of complete media in a new plate. Parasitemia was assessed at 72 hours post-synchronization using giemsa-stained thin blood smears. Percentage of survival was calculated in comparison to a DMSO-treated control. The data were obtained in three independent experiments.

Assay [8] has as its system P. berghei ANKA strain GFP-expressing parasites. Nature of the assay: In vivo activity, Peters 4-day suppressive test. To be noted: C57BL/6 mice, 10mg/kg i.p. daily for four days. How it is done: In vivo activity was determined as previously described (Malmquist et al. Antimicrob. Agents Chemother. 2015, 59 (2), 950-959) following the Peters 4-day suppressive test (Peters, Ann. Trop. Med. Parasitol. 1975, 69 (2), 155-171), with slight modifications. C57BL/6 mice were infected intraperitoneally (i.p.) with 10^5 P. berghei ANKA strain GFP-expressing parasites (Ishino et al. Cell. Mol. Microbiol. 2006, 59 (4), 1175-1184). Two hours post-infection, mice were treated i.p. with a daily regimen of 10mg/kg of compound 84, or 25mg/kg of chloroquine, or the equivalent vehicle control (distillated water) for four days. Parasitemia was quantified from blood samples collected every day by flow cytometry of 50,000 RBCs and confirmed by Giemsa-stained blood smears.

Assay [9] concerns Lab. Strain 3D7. Nature of the assay: Inhibition of proliferation, asynchronous asexual stages, SYBR-green assay, laboratory strain. It counts as cell-based, P. falciparum. To be noted: Plasmodium falciparum, 3D7; 72h; laboratory strain, drug-sensitive; mean of three replicates; read-out: IC50 nM Lab. Strain 3D7 mean*. On the procedure: as §1, §2
Assay [10] concerns artemisinin-resistant parasites (strains 5150, 6591, 5248 and 6320). Nature of the assay: Ring-stage Survival Assay (RSA). It counts as cell-based, P. falciparum. To be noted: 0-3h rings. On the procedure: Since compounds of the invention are active on early ring stage as shown by the experiments on the cell cycle, their ability to kill artemisinin-resistant parasites in the ring-stage survival assay was tested (strains 5150, 6591, 5248 and 6320, Figure 2).
0-3h synchronized ring-stage parasites were exposed to a treatment of 6h with either DMSO, 700nM dihydroartemisinin (DHA), three times the IC50 value of the compound to test or 700nM DHA in combination with three times the IC50 value of the compound to test. Parasitemia was assessed at 72 hours post-synchronization using giemsa-stained thin blood smears. Percentage of survival was calculated in comparison to a DMSO-treated control. The data were obtained in three independent experiments.

SMILES strings stand for the structures. Where two headings read alike, the source gives them in different places.

On to `COc1cc2c3c4c1Oc1cc5c(cc1O4)C(Cc1ccc(OCCCN(C)C)c(c1)Oc1ccc(cc1)CC3N(C)CC2)N(C)CC5` (stereo not drawn) [Compound 84], for which the IC50 in assay [1] came out at 167 nM; in assay [2], 183 nM; in assay [3], 346 nM; in assay [4], 251 nM; in assay [6] (NF54, 72h), 137 nM; in assay [6] (Plasmodium falciparum, NF54, 72 h) it was 130 ± 35 nM. Moreover, in assay [9], the IC50 turned out to be 136 nM. In addition, the “Speed of action (parasite reduction rate)” value in assay [5] was “act as fast as dihydroartemisinin (DHA)”. Further, the activity at 5 µM in assay [6] (Plasmodium falciparum, first screen at 5µM in duplicate, 72h, NF54, read-out: % survival @5uM) is 14.9%. For the same molecule, the “Stage-specificity (survival after 6h treatment windows across the 48h cycle)” value in [7] (synchronized NF54, 6h treatment, parasitemia at 72 hours post-synchronization, Figure 1) is “active throughout the 48h cycle with an increased efficiency between 12 and 42h post-invasion”. Further, the “Concentration from which the compound is active (stage-specificity assay)” value in assay [7] (tested at one, two and three times the IC50 value) is on record as “active starting from the concentration corresponding to 3 times the IC50 value”. Moreover, in assay [8], the Severe malaria symptoms entry was “do not develop severe malaria symptoms”. The same molecule registered a Survival after inoculation in assay [8] of 16 days. Also, the “Killing of resistant rings (RSA), compound alone” value in assay [10] (6h treatment with three times the IC50 value, Figure 2) is “kills resistant rings using three times the IC50 value in a similar manner whichever the strain considered”. The “Killing of parasites (RSA), in combination with DHA” value in [10] (6h treatment, three times the IC50 value plus 700nM DHA) is given as “able to kill the parasites of all the tested strains in combination with 700nM dihydroartemisinin (DHA)”.
